Assay results from publication PMC10095932 (Molecules, 2023).
Where a SMILES comes first, the peptide text is derived from it. Bridges are numbered along the chain shown (N, C = ends).

Target: T1, rat NPR-A (Rattus norvegicus, UniProt P18910)
T1 construct: endogenous in cells; host or cells: rat PC12 cells
T1 sequence (P18910 29-1057): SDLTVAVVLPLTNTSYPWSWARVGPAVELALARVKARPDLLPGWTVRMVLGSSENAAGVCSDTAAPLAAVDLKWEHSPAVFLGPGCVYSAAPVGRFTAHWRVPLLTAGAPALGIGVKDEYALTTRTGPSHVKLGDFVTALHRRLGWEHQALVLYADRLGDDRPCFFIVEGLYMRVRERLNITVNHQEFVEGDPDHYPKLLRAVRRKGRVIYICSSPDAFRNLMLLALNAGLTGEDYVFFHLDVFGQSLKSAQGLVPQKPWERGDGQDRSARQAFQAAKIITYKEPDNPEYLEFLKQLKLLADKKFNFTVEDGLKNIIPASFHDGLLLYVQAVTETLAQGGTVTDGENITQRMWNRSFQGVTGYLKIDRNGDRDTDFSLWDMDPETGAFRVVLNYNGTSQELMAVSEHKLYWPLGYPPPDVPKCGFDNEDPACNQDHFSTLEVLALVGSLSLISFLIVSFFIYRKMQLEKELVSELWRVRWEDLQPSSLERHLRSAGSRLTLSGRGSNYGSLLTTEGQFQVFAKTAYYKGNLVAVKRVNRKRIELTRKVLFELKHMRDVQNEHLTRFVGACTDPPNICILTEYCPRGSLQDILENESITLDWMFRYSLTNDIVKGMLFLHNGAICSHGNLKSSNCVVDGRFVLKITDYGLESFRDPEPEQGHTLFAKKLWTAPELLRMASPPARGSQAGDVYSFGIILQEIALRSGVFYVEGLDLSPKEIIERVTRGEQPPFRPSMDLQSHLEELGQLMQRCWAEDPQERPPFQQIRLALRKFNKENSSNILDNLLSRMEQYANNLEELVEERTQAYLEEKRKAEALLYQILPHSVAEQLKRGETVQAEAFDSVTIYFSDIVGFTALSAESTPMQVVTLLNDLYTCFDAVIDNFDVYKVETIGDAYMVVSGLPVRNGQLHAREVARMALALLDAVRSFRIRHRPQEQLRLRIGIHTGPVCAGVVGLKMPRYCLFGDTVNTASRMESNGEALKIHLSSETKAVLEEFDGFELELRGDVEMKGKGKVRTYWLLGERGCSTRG
Experiment: cGMP ALPHAscreen, cGMP production in PC12 cells
Assay type: cell-based
Description: NP activity can be determined by the effectiveness of the peptide to elicit cGMP production through NPR-A. The cGMP ALPHAscreen evaluates the ability of peptides to stimulate cGMP production in cells through a non-radioactive, homogenous, proximity assay which encompasses […]. […] In order to evaluate the potency of TNPa-e at rNPR-A, TNPa-e were evaluated using the cGMP ALPHAscreen in rat PC12 cells.
Cells were cultured at 5% CO2 and 37 °C. HEK 293 cells were cultured in high glucose DMEM (Gibco, Carlsbad, CA, USA) supplemented with 10% FBS, and 1% penicillin/streptomycin. HEK 293 cells were seeded in media lacking penicillin/streptomycin 24 to 48 h pre-transfection. PC12 cells were cultured in high glucose DMEM (Gibco) supplemented with 10% FBS and 1% penicillin/streptomycin.
The cGMP ALPHAscreen was performed using the ALPHAscreen Protein A detection kit and the biotinylated cGMP supplement (Perkin Elmer, Waltham, MA, USA) with rabbit anti-cGMP polyclonal antibody (Biovision, Mountain View, CA, USA). Cells were detached from the flask and the resulting pellet was resuspended in stimulation buffer (HBSS supplemented with 0.1% w/v BSA and 1 mM IBMX at 37 °C). Cells were added to a white 384-well Optiplate (Perkin Elmer, Waltham, USA) to 30,000 cells per well for HEK 293 cells and 10,000 cells per well for PC12 cells. Cells were incubated with different concentrations of test peptides (concentration range of 1 × 10^−5 to 1 × 10^−11 M in stimulation buffer) at 37 °C for 30 min. Cells were lysed with lysis buffer (1 M HEPES, 0.3% Tween-20, 1% BSA in H2O, pH 7.4). Then 5 μL acceptor-bead mix was added to each well under subdued lighting conditions, followed by 5 μL of donor-bead mix. Plates were incubated for ~12 h, slowly shaking at room temperature. After incubation, the ALPHAscreen signal was measured using an EnVision plate reader (Perkin Elmer). The standard curve consisted of cGMP in a concentration range of 1 × 10^−6 to 1 × 10^−12 M. All data points were acquired in triplicate and were analyzed using GraphPad Prism 5.0 software (GraphPad Software, Inc., San Diego, CA, USA).

Question: With CC[C@H](C)[C@H](NC(=O)[C@H](CCCCN)NC(=O)[C@H](CO)NC(=O)[C@H](CC(=O)O)NC(=O)[C@@H](N)CO)C(=O)NCC(=O)N[C@@H](CC(N)=O)C(=O)NCC(=O)N[C@H]1CSSC[C@@H](C(=O)N[C@@H](CC(N)=O)C(=O)N[C@@H](CCCNC(=N)N)C(=O)N[C@H](C(=O)N[C@@H](CCSC)C(=O)N[C@@H](CCC(N)=O)C(=O)N[C@@H](CC(N)=O)C(=O)N2CCC[C@H]2C(=O)N2CCC[C@H]2C(=O)N[C@@H](CCCCN)C(=O)N[C@@H](CCCCN)C(=O)N[C@@H](Cc2ccccc2)C(=O)N[C@@H](CO)C(=O)NCC(=O)N[C@@H](CCC(=O)O)C(=O)O)[C@@H](C)CC)NC(=O)CNC(=O)[C@H](CC(C)C)NC(=O)CNC(=O)[C@H](CO)NC(=O)[C@H](C(C)C)NC(=O)[C@H](CO)NC(=O)CNC(=O)[C@H]([C@@H](C)CC)NC(=O)[C@H](CCCNC(=N)N)NC(=O)[C@H](CC(=O)O)NC(=O)[C@H](CC(C)C)NC(=O)[C@@H]2CCCN2C(=O)[C@H](Cc2ccccc2)NC(=O)CNC(=O)[C@H](Cc2ccccc2)NC1=O [TNPc] (H-SDSKIGNGCFGFPLDRIGSVSGLGCNRIMQNPPKKFSGE-OH; disulfide 9-25) as the molecule, how does the EC50 (PC12 cells, 30 min at 37 °C, cGMP ALPHAscreen, three to five separate experiments in triplicate, read-out: rNPR-A EC50 (95% CI), potency to stimulate cGMP production) read?
Answer: Its EC50 is 0.1 µM.

Question: What about the “selectivity / difference in potency for rNPR-A over hNPR-A” value (rNPR-A (PC12) versus hNPR-A (HEK 293) cGMP potency) of the same molecule?
Answer: Its value is 100 fold.
